“And” between values parts separate entries of the source, which are not always exact repeats. Equal entries are not always repeated.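 96-well plates; 48 h exposure; 5 concentrations. Endpoints by linear interpolation between flanking doses. Not reached: highest tested concentration assigned. The concentration for 50% growth inhibition is given as GI50. TGI: total growth inhibition.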
Columns and labels:
Assay in all cases: NCI tumour cell line growth inhibition, 48 h
[1] = system: SK-OV-3 ovarian
[2] = system: SW-620 colon
[3] = system: SNB-75 CNS
[4] = system: UACC-62 melanoma
[5] = system: IGROV1 ovarian
[6] = system: M14 melanoma
[7] = system: HT29 colon
[8] = system: SK-MEL-28 melanoma
[9] = system: HS 578T breast

| SMILES | TGI [1] | TGI [2] | TGI [3] | TGI [4] | TGI [5] | TGI [6] | TGI [7] | TGI [8] | GI50 [1] | GI50 [2] | GI50 [3] | GI50 [4] | GI50 [5] | GI50 [8] | GI50 [6] | GI50 [7] | GI50 [9] | TGI [9] |
| --- | --- | --- | --- | --- | --- | --- | --- | --- | --- | --- | --- | --- | --- | --- | --- | --- | --- | --- |
| Cn1c(N)nc(=O)c2c1N(C1OC(CO)C(O)C1O)CN2Cc1ccccc1 (configuration not stated) | > 100 µM | > 100 µM | > 100 µM | > 100 µM | > 100 µM | > 100 µM | > 100 µM |  |  |  |  |  |  |  |  |  |  |  |
| C=C1C(OC(=O)/C=C/c2ccccc2)CC(OC(C)=O)C2(C)C1CC1CC(OC(C)=O)C(C)=C(C(OC(C)=O)C2OC(C)=O)C1(C)C (configuration not stated) | > 100 µM | > 100 µM | > 100 µM | > 100 µM | > 100 µM | > 100 µM | > 100 µM |  |  |  |  |  |  |  |  |  |  |  |
| COc1ccc(/C=C2\CCC(CCN(C)C)(C3=CCCC3)C2=O)cc1Br (configuration not stated) |  | 20.3 µM | 17.5 µM |  | 14.7 µM | 3.34 µM | 7.14 µM | 7.7 µM |  |  |  |  |  |  |  |  |  |  |
| O=C1/C(=C/c2ccc(Cl)cc2)CCC/C1=C\c1ccc(Cl)cc1 | > 100 µM | 6.39 µM | > 100 µM | > 100 µM | > 100 µM | 8.7 µM | 6.37 µM | > 100 µM | 9.84 µM | 2.36 µM | > 100 µM | 4.39 µM | 4.13 µM | 5.8 µM | 3.04 µM | 2.7 µM | 3.43 µM | > 100 µM |
| O=C(O/N=C1/CCC/C1=C\c1ccccc1)c1ccc(Cl)c(Cl)c1 | > 100 µM | > 100 µM | > 100 µM | > 100 µM | > 100 µM | > 100 µM | > 100 µM | > 100 µM |  |  |  |  |  |  |  |  |  |  |
| CCOC(=O)c1cnc2c(ccc3ncccc32)c1NCCCN(CC)CC | > 100 µM | > 100 µM |  | > 100 µM | > 100 µM | 35.1 µM | > 100 µM | > 100 µM |  |  |  |  |  |  |  |  |  |  |
| COC(=O)C12OCC34C(CC5C(C)C6=CC(=O)OC6=CC5(C)C3C(O)C1O)OC(=O)C(O)C24 (configuration not stated) | 24.6 µM | 9.4 µM | 0.682 µM and 2.48 µM | 0.779 µM and 1.91 µM | 0.436 µM and 1.41 µM | 0.504 µM and 2.22 µM | 0.674 µM | 0.933 µM and 2.29 µM | 0.328 µM | 0.282 µM | 0.158 µM | 0.262 µM | 0.17 µM | 0.0899 µM | 0.177 µM and 0.767 µM | 1.68 µM |  |  |
| CCOC(=O)C(CC/C=C\c1ccccc1)N1CCC[C@H]1C(=O)OC (some centres not stated) | > 100 µM | > 100 µM | > 100 µM | > 100 µM | > 100 µM | > 100 µM | > 100 µM | > 100 µM |  |  |  |  |  |  |  |  |  |  |

Source: PubChem BioAssay (NCI)
